Results taken from patent US20030175314A1, “Pharmaceutical composition for dermal application” (priority 2001, published 2003).

Assays:
[1] = type: physicochemical
Source text: More specifically, the solvent comprises a non-toxic glycol or glycol ether selected from the group consisting of propylene glycol, butylene glycol, diethylene glycol and diethylene glycol ether. […] The advantageous dissolution properties of propylene glycol may be explained by the solubility properties of this particular solvent, as determined by the Hildebrand solubility coefficient (J H Hildebrand and R L Scott, The Solubility of Non-Electrolytes, Reinhold, N.Y., 1949). […] Thus propylene glycol has a Hildebrand coefficient within ±2 units of that of cipamfylline which makes it an effective solvent for this active component.

[2] = tested on: skin; test: skin irritation by the solvent; type: in vivo; settings: propylene glycol in itself
Source text: Apart from being a solvent for cipamfylline, propylene glycol as a secondary penetration enhancer, i.e. a substance which is capable of penetrating the stratum corneum and “draw” low-molecular components such as therapeutically active components in the vehicle into the epidermis. […] For this reason, propylene glycol has previously been thought to be unsuitable for inclusion as a solvent in compositions intended for the treatment of atopic dermatitis. However, the present vehicle has been specifically designed to exclude all excipients which are capable of penetrating into the epidermis (or being “drawn” into the epidermis by the solvent) and which are not essential for formulation purposes, resulting in a composition which, according to the clinical tests described in Example 3 herein, gives rise to fewer irritative reactions in skin on which the composition is applied compared to a conventional reference formulation. This, of course, is particularly important for dermal formulations intended for application on inflamed, and therefore highly irritated skin so as to avoid a painful burning sensation at the site of application and more long-term irritation such as pain or itching.

[3] = tested on: PDE4; test: in vitro PDE4 inhibition; type: biochemical; settings: in vitro studies
Source text: (§1) The compound of formula I, 1,3-dicyclopropylmethyl-8-aminoxanthine, is also known by the proposed generic name cipamfylline. The compound and a method of its preparation is disclosed in U.S. Pat. No. 5,734,051 which is hereby incorporated by reference in its entirety.

[4] = tested on: secretion of proinflammatory cytokines such as tumour necrosis factor α (TNF-α), IL-10, IL-12 and IFN-γ; test: in vitro secretion of proinflammatory cytokines; type: cell-based; settings: in vitro studies
Source text: as §1

[5] = tested on: lymphocyte proliferation; test: in vitro lymphocyte proliferation; type: cell-based; settings: in vitro studies
Source text: as §1

[6] = solubility; type: physicochemical
Protocol: Cipamfylline has a pronounced inner crystal bonding resulting in a high melting point (about 310-312° C.) and some degree of hydrophobicity. […] On the other hand, effective delivery of the active component into the epidermis where it can exert its effect requires that the compound be present in a dissolved state in said composition.

[7] = tested on: atopic dermatitis; test: phase II left/right study, cipamfylline cream vs vehicle or Locoid cream (Example 2); type: in vivo, Humans; settings: for decrease of total severity score: 1 g twice daily, two weeks
Protocol: In a phase II, multi-centre, randomised, double-blind left/right study comparing cipamfylline cream 1.5 mg/g (formulation B) with the reference vehicle without cipamfylline and with Locoid cream 0.1% (hydrocortisone-17-butyrate 0.1% cream) in patients suffering from atopic dermatitis, patients were randomised to either group (1) cipamfylline cream 1.5 mg/g in reference vehicle vs vehicle or (2) cipamfylline cream 1.5 mg/g in reference vehicle vs Locoid cream. One g of each cream were applied twice daily for two weeks. A total number of 108 patients with a clinical diagnosis of atopic dermatitis, with symmetrical lesions of atopic dermatitis on their arms with a minimum score of 6 in the total severity score (ratings of erythema, oedema/papulation, oozing/crusting, excoriations and lichenification on a scale from 0-3) were included. Excluded were patients with suspected infection in the treatment areas, patients who were receiving other treatment for atopic dermatitis or who were pregnant or planning to become pregnant in the course of the study.

| solubility ([6]; water) | solubility with water as co-solvent ([6]; water present as a co-solvent in an amount of about 25% or more) | SMILES | Hildebrand coefficient (solubility parameter δ) [1] | skin irritation [2] | inhibition of PDE4 [3] | inhibition of the secretion of proinflammatory cytokines (TNF-α, IL-10, IL-12, IFN-γ) [4] | effect on lymphocyte proliferation [5] | decrease of total severity score ([7]; group (1) cipamfylline cream 1.5 mg/g (formulation B) vs vehicle, end of study) | decrease of total severity score ([7]; group (2) cipamfylline cream 1.5 mg/g (formulation B) vs Locoid cream 0.1%, end of treatment) | patients with local adverse reactions (burning, stinging, pruritus) ([7]; treated side, cipamfylline cream 1.5 mg/g vs vehicle) |
| --- | --- | --- | --- | --- | --- | --- | --- | --- | --- | --- |
|  |  | CC(O)CO (centres unmarked) [propylene glycol] | about 14.8 (cal/cm^3)^1/2 | does not in itself give rise to any significant skin irritation |  |  |  |  |  |  |
| < 50 µg/mL | greatly decreased | Nc1nc2c([nH]1)c(=O)n(CC1CC1)c(=O)n2CC1CC1 [cipamfylline, 1,3-dicyclopropylmethyl-8-aminoxanthine] | about 13.4 (cal/cm^3)^1/2 |  | potent and selective inhibitor | inhibitor | no effect | 38% | 30% | 15 % of the patients |
